# Measured values published in patent US20150191484A1, “NOVEL COMPOUNDS HAVING A TETRACYCLIC IRIDOID SKELTON AND AN ANTI-TRYPANOSOMAL AGENT COMPRISING THE SAME AS AN ACTIVE INGREDIENT” (NATIONAL UNIVERSITY CORPORATION TOKYO MEDICAL AND DENTAL …, priority 2014, published 2015).
# Entries after “also recorded” stand apart in the source; their conditions may differ.
# Tests used:
# [1] = tested on: GUTat 3.1 strain of the bloodstream forms of T. b. brucei parasites; assay: Alamar Blue assay (trypanocidal activity); type: cell-based, Trypanosoma brucei brucei
# Protocol: (§1) The GUTat 3.1 strain of the bloodstream forms of T. b. brucei parasites was used for this study. Parasites were cultured in vitro according to the conditions established by Yabu et al, 1998.
# (§2) Parasites were used when they reached a confluent concentration of 1×10^6 parasites/ml. Estimation of parasitemia was done with the Neubauer's counting chamber. Parasites were diluted to a concentration of 3×10^5 parasites/ml with HMI-9 medium and used for the various experiments.
# The Alamar Blue assay was carried out in a 96-well plate. About 1.5×10^4 Parasites were seeded with varied concentrations of the Morinda lucida crude extract, ranging from as low as 0.78 μg/ml to as high as 200 μg/ml, in a ratio of 1:1 in 100 μl volume per well. Berberine, a compound known as anti-trypanocidal agent, was used as a positive control. […] The parasites were incubated with the plant extracts for 24 hours at 37° C. and under 5% CO2. After 24 hours, 10% Alamar Blue dye was added to each well and re-incubated for another 24 hours under the same conditions but in darkness. After a total of 48 hours, the plate was read for absorbance at 540 nm using the TECAN Sunrise Wako Spectrophotometer. An Absorbance-concentration (extract) curve was drawn and the IC50 value of the plant extract was extrapolated. Alamar Blue assay was also performed on the fractions and compounds purified from Morinda Lucida to determine their IC50 values. The IC50 values obtained were compared with that of the positive control and trypanocidal activity determined.
# [2] = MTT cytotoxicity assay, LoVo; type: cell-based, human; conditions: human, LoVo colon cancer cells; LoVo colon cancer, 48 h, MTT
# Protocol: (§3) The cytotoxic activity of natural products against mammalian cells is an important point in the search for active compounds with biological activity. […] In order to confirm the selective and potent anti-trypanosomal activity of ML-2-2 and ML-2-3, we examined their cytotoxicity in a panel of human cell lines including two human fibroblastic and 8 human cancer-derived cell lines. Cells were seeded in 96-well microplates and incubated with ML-2-2 and ML-2-3 for 48 h at 37° C. in a 5% CO2 humidified incubator. The viabilities of cells were determined with the MTT (3-(4,5-dimethylthiazol-2-yl)-2-5-diphenyltetrazolium bromide) assay. The selectivity index (SI) was determined using the following equation: IC50 against human cells/IC50 against T. brucei. The IC50 values of ML-2-3 were higher than those of ML-2-2 in all the cell lines examined. […] The SI of ML-2-2 indicates values below 1.00 in most cell lines. On the other hand, SI values of ML-2-3 were much higher than those of ML-2-2 in all tested cell lines.
# LoVo (colon cancer) = assay: MTT cytotoxicity assay, LoVo; type: cell-based, human; conditions: IC50 against LoVo / IC50 against T. brucei
# Protocol: as §3
# [3] = MTT cytotoxicity assay, Jurkat; type: cell-based, human; conditions: human, Jurkat leukemia cells; Jurkat leukemia, 48 h, MTT
# Protocol: as §3
# Jurkat (leukemia) = assay: MTT cytotoxicity assay, Jurkat; type: cell-based, human; conditions: IC50 against Jurkat / IC50 against T. brucei
# Protocol: as §3
# [4] = MTT cytotoxicity assay, U937; type: cell-based, human; conditions: human, U937 leukemia cells; U937 leukemia, 48 h, MTT
# Protocol: as §3
# U937 (leukemia) = assay: MTT cytotoxicity assay, U937; type: cell-based, human; conditions: IC50 against U937 / IC50 against T. brucei
# Protocol: as §3
# [5] = MTT cytotoxicity assay, HL-60; type: cell-based, human; conditions: human, HL-60 leukemia cells; HL-60 leukemia, 48 h, MTT
# Protocol: as §3
# HL-60 (leukemia) = assay: MTT cytotoxicity assay, HL-60; type: cell-based, human; conditions: IC50 against HL-60 / IC50 against T. brucei
# Protocol: as §3
# Trypanosoma cells [6] = assay: Cell cycle assay (FACS); type: cell-based, Trypanosoma brucei brucei
# Protocol: as §1, §2
# This assay was performed to investigate any abnormal change in the parasites' cell cycle which may be caused by extracts/compounds with trypanocidal effect. […] The parasites were collected and transferred into 15 ml centrifuge tubes and centrifuged at 1700 rpm for 10 min, after which the supernatant was discarded. The pelleted parasites were re-suspended in 5 ml PBS solution and vortexed to form a suspension. The parasite suspension was centrifuged at 1700 rpm for 10 min and the supernatant discarded. The pelleted parasites were re-suspended in 1.5 ml of PBS and vortexed thoroughly before adding 3.5 ml absolute EtOH gradually to a final volume of 5 ml 70% EtOH. The parasites were then fixed at −20° C. for 1 h. The cell suspension was then centrifuged at 1700 rpm for 10 min and the supernatant discarded. Pelleted parasites were re-suspended in 200 μl of Guava Cell Cycle reagent, which has Propidium Iodide as its main constituent and incubated at room temperature for 30 min. The solution was transferred to wells of 96-well plate. The well contents were then subjected to FACS analysis using the Millipore guava easyCyte 5HT FACS machine, for the sorting of parasites according to the manufacturer's instructions.
# Trypanosoma cells [7] = assay: Immunohistochemistry / immuno-fluorescence analysis (anti-α tubulin, DAPI); type: cell-based, Trypanosoma brucei brucei; conditions: 15 μM (four times of IC50)
# Protocol: as §1, §2
# Immunohistochemistry was performed to detect any morphological or phenotypic changes which may be caused by extracts/compounds with trypanocidal effect. The initial steps of immunohistochemistry are the same as that for the Cell Cycle Assay. After fixing the parasites at −20° C. for an hour, 500 μl of the fixed parasites were transferred to an 8-chamber slide. The parasites were incubated at 4° C. overnight to allow the fixed parasites to adhere to the slide surface. The 70% EtOH was then discarded completely. 500 μl of PBS was added to each chamber and incubated for 5 min, after which PBS was discarded. The parasites were further washed with 500 μl of PBST (0.01% Triton X 100 in PBS) for 5 min and the washing solution discarded. 500 μl of blocking reagent (3% BSA in PBST) was added to the chamber and incubated for 30 min at room temperature, after which the blocking reagent was discarded. Each chamber was filled with 500 μl Anti-α tubulin antibody and incubated for 1 hour. The antibody was then discarded and the parasites were incubated with 500 μl of DAPI (5 μg/ml DAPI in PBS) for 10 min in the dark. The wells were washed twice with 500 μl of PBS and once with 500 μl of PBST. The 8-chamber block was detached from the slide and a few drops of parmafluor mounting reagent were put on the slide. The slide was covered carefully with a cover slip. The covered slide was allowed to dry in the dark and the edge of the cover slip sealed with clear nail varnish. The slide was observed under the Olympus fluorescent microscope.
smiles,measurement,setting,value
"COc1cc(/C=C2/C(=O)O[C@]34C=C[C@@H]5C(C(=O)O)=CO[C@H](O[C@@H]23)[C@@H]54)ccc1O [ML-2-3, (3aS,4aR,4a^1S,7aS,9aS,3E)-3-(4-hydroxy-3-methoxybenzylidene)-2-oxo-2,3,3a,4a,4a^1,7a-hexahydro-1,4,5-trioxadicyclopenta[a,hi]indene-7-carboxylic acid]",IC50,"[1]; T. b. brucei, Alamar Blue, 48 h, read-out: IC50 of anti-trypanosomal activity",3.75 µM
same,inhibition of the growth of Trypanosoma brucei brucei (in words),[1]; in vitro,the most potent in vitro activity
same,IC50 at 48 h,[2],30.4 µM
same,SI (selectivity index),LoVo (colon cancer),8.10
same,IC50 at 48 h,[3],12.4 µM
same,SI (selectivity index),Jurkat (leukemia),3.31
same,IC50 at 48 h,[4],12 µM
same,SI (selectivity index),U937 (leukemia),3.21
same,IC50 at 48 h,[5],25.5 µM
same,SI (selectivity index),HL-60 (leukemia),6.81
same,cells with low DNA content (sub-G1 phase),Trypanosoma cells [6]; 15 μM,a large proportion of cells with low DNA content were detected as sub-G1 phase
same,numbers of cells in the G2 and M phase of cell cycle,"Trypanosoma cells [6]; four times of IC50: 15 μM ML-2-3, 5 μM ML-2-2, 24 hours",significant decrease; also recorded: caused alteration of G2/M phase
same,expression of α-tubulin,Trypanosoma cells [7],significantly suppressed
same,flagellum phenotype,Trypanosoma cells [7],no flagellum phenotype
same,nuclear fragmentation,Trypanosoma cells [7],clearly induced the fragmented nuclei
